Experimental data from patent US7148232B2, “Oxazolo, thiazolo and selenazolo [4,5-c]-quinolin-4-amines and analogs thereof” (3M Innovative Properties Company, priority 1998, dated 2006).

Experiments:
[1] = system: interferon (α); assay: Interferon (α) induction in human cells (in vitro human blood cell system, interferon by bioassay); type: cell-based; settings: human PBM's, 48 hours
Protocol: An in vitro human blood cell system was used to assess interferon induction by compounds of the invention. Activity is based on the measurement of interferon secreted into culture media. Interferon is measured by bioassay.
Whole blood is collected by venipuncture into EDTA vacutainer tubes. Peripheral blood mononuclear cells (PBM's) are separated from whole blood by using either LeucoPREP™ Brand Cell Separation Tubes (available from Becton Dickinson) or Ficoll-Paque® solution (available from Pharmacia LKB Biotechnology Inc, Piscataway, N.J.). […] 200 μL portions of PBM suspension are added to 96 well (flat bottom) sterile tissue culture plates (Becton Dickinson Labware, Lincoln Park, N.J.).
The compounds are solubilized in ethanol, dimethyl sulfoxide or tissue culture water then diluted with tissue culture water, 0.01N sodium hydroxide or 0.01N hydrochloric acid (The choice of solvent will depend on the chemical characteristics of the compound being tested.). Ethanol or DMSO concentration should not exceed a final concentration of 1% for addition to the culture wells. Compounds are initially tested in a concentration range of from about 0.1 μg/mL to about 5 μg/mL. Compounds which show induction at a concentration of 0.5 μg/mL are then tested in a wider concentration range.
The solution of test compound is added in a volume (less than or equal to 50 μL) to the wells containing 200 μL of diluted whole blood or of PBM's in media. Solvent and/or media is added to control wells (wells with no test compound) and as needed to adjust the final volume of each well to 250 μL. The plates are covered with plastic lids, vortexed gently and then incubated for 48 hours at 37° C. with a 5% carbon dioxide atmosphere.
Following incubation, the plates are covered with parafilm and then centrifuged at 1000 rpm for 10 to 15 minutes at 4° C. in a Damon IEC Model CRU-5000 centrifuge. Media (about 200 μL) is removed from 4 to 8 wells and pooled into 2 mL sterile freezing vials. Samples are maintained at −70° C. until analysis.
Interferon is determined by bioassay using A549 human lung carcinoma cells challenged with encephalomyocarditis. The details of the bioassay method have been described by G. L. Brennan and L. H. Kronenberg in “Automated Bioassay of Interferons in Micro-test Plates”, Biotechniques, June/Jul. […] The incubated cells are infected with an inoculum of encephalomyocarditis virus. The infected cells are incubated for an additional period at 37° C. before quantifying for viral cytopathic effect. The viral cytopathic effect is quantified by staining followed by spectrophotometric absorbance measurements. Results are expressed as alpha reference units/mL based on the value obtained for NIH HU IF-L standard.
Compounds of the invention were tested for their ability to induce interferon in human cells using the test method described above.

[2] = system: tumor necrosis factor (α); assay: Cytokine induction in human cells: tumor necrosis factor (α) secreted by PBMCs (ELISA); type: cell-based; settings: 18 to 24 hours
Protocol: (§1) An in vitro human blood cell system was used to assess cytokine induction by compounds of the invention.
(§2) Whole blood is collected by venipuncture into EDTA vacutainer tubes from healthy human donors. […] The PBMC suspension is added to 48 well flat bottom sterile tissue culture plates (Costar, Cambridge, Mass. or Becton Dickinson Labware, Lincoln Park, N.J.) containing an equal volume of RPMI complete media containing test compound.
(§3) The compounds are solubilized in dimethyl sulfoxide (DMSO). The DMSO concentration should not exceed a final concentration of 1% for addition to the culture wells.
(§4) The solution of test compound is added at 60 μM to the first well containing RPMI complete and serial 3 fold dilutions are made. The PBMC suspension is then added to the wells in an equal volume, bringing the test compound concentrations to the desired range (0.12 to 30 μM). The final concentration of PBMC suspension is 1.5–2×10^6 cells/mL. The plates are covered with sterile plastic lids, mixed gently and then incubated for 18 to 24 hours at 37° C. in a 5% carbon dioxide atmosphere.
(§5) Following incubation the plates are centrifuged for 5–10 minutes at 1000 rpm (˜200×g) at 4° C. The cell culture supernatant is removed with a sterile polypropylene pipet and transferred to sterile polypropylene tubes. Samples are maintained at −30 to −70° C. until analysis. The samples are analyzed for interferon (α) by either ELISA or bioassay and for tumor necrosis factor (α) by ELISA
Tumor necrosis factor (α) (TNF) concentration is determined using ELISA kits available from Genzyme, Cambridge, Mass.; R&D Systems, Minneapolis, Minn.; or Pharmingen, San Diego, Calif. according to the manufacturer's instructions.

[3] = system: interferon (α); assay: Cytokine induction in human cells: interferon (α) secreted by PBMCs (ELISA or bioassay); type: cell-based; settings: 18 to 24 hours
Protocol: as §1, §2, §3, §4, §5
Interferon is determined by bioassay using A549 human lung carcinoma cells challenged with encephalomyocarditis. […] Briefly stated the method is as follows: A549 cells are incubated with dilutions of samples or a standard interferon at 37° C. for 24 hours. The incubated cells are then infected with an inoculum of encephalomyocarditis virus. The infected cells are incubated for an additional 24 hours at 37° C. before evaluating for viral cytopathic effect. The viral cytopathic effect is quantified by staining with crystal violet followed by visual scoring of the plates. Results are expressed as alpha reference units/mL based on the value obtained for NIH Human Leukocyte IFN standard.
Interferon (α) concentration is determined by ELISA using a Human Multi-Species kit from PBL Biomedical Laboratories, New Brunswick, N.J. according to the manufacturer's instructions.

CCc1nc2c(N)nc3ccccc3c2o1 [Example 39, 2-Ethyloxazolo [4,5-c]quinolin-4-amine]
Interferon (α) Induction in Human Cells ([1]; Dose Concentration 0.01 μg/mL): −
Interferon (α) Induction in Human Cells ([1]; Dose Concentration 0.05 μg/mL): −
Interferon (α) Induction in Human Cells ([1]; Dose Concentration 0.10 μg/mL): +
Interferon (α) Induction in Human Cells ([1]; Dose Concentration 0.50 μg/mL): +
Interferon (α) Induction in Human Cells ([1]; Dose Concentration 1.0 μg/mL): +
Interferon (α) Induction in Human Cells ([1]; Dose Concentration 5.0 μg/mL): +
melting point: 175 to 178 °C

CCCc1nc2c(N)nc3ccccc3c2o1 [Example 43, 2-Propyloxazolo[4,5-c]quinolin-4-amine]
Interferon (α) Induction in Human Cells ([1]; Dose Concentration 0.01 μg/mL): −
Interferon (α) Induction in Human Cells ([1]; Dose Concentration 0.05 μg/mL): +
Interferon (α) Induction in Human Cells ([1]; Dose Concentration 0.10 μg/mL): +
Interferon (α) Induction in Human Cells ([1]; Dose Concentration 0.50 μg/mL): +
Interferon (α) Induction in Human Cells ([1]; Dose Concentration 1.0 μg/mL): +
Interferon (α) Induction in Human Cells ([1]; Dose Concentration 5.0 μg/mL): +
melting point: 159 to 160 °C

CCCc1nc2c(N)nc3ccc(Br)cc3c2s1 [Example 44, 8-Bromo-2-propylthiazolo[4,5-c]quinolin-4-amine]
Interferon (α) Induction in Human Cells ([1]; Dose Concentration 0.10 μg/mL): −
Interferon (α) Induction in Human Cells ([1]; Dose Concentration 0.50 μg/mL): −
Interferon (α) Induction in Human Cells ([1]; Dose Concentration 1.0 μg/mL): −
Interferon (α) Induction in Human Cells ([1]; Dose Concentration 5.0 μg/mL): +
Interferon (α) Induction in Human Cells ([1]; Dose Concentration 10.0 μg/mL): +
Interferon (α) Induction in Human Cells ([1]; Dose Concentration 25.0 μg/mL): +
Interferon (α) Induction in Human Cells ([1]; Dose Concentration 50.0 μg/mL): +
melting point: 177 to 180 °C

CCCc1nc2c(N)nc3cc(C)ccc3c2s1 [Example 45, 7-Methyl-2-propylthiazolo[4,5-c]quinolin-4-amine]
Interferon (α) Induction in Human Cells ([1]; Dose Concentration 0.01 μg/mL): −
Interferon (α) Induction in Human Cells ([1]; Dose Concentration 0.05 μg/mL): +
Interferon (α) Induction in Human Cells ([1]; Dose Concentration 0.10 μg/mL): +
Interferon (α) Induction in Human Cells ([1]; Dose Concentration 0.50 μg/mL): +
Interferon (α) Induction in Human Cells ([1]; Dose Concentration 1.0 μg/mL): +
Interferon (α) Induction in Human Cells ([1]; Dose Concentration 5.0 μg/mL): +
melting point: 186 to 187 °C

CCCCc1nc2c(N)nc3cc(C)ccc3c2o1 [Example 46, 2-Butyl-7-methyloxazolo[4,5-c]quinolin-4-amine]
Interferon (α) Induction in Human Cells ([1]; Dose Concentration 0.01 μg/mL): −
Interferon (α) Induction in Human Cells ([1]; Dose Concentration 0.05 μg/mL): +
Interferon (α) Induction in Human Cells ([1]; Dose Concentration 0.10 μg/mL): +
Interferon (α) Induction in Human Cells ([1]; Dose Concentration 0.50 μg/mL): +
Interferon (α) Induction in Human Cells ([1]; Dose Concentration 1.0 μg/mL): +
Interferon (α) Induction in Human Cells ([1]; Dose Concentration 5.0 μg/mL): +
melting point: 187 to 188 °C

CCCc1nc2c(N)nc3cc(C)ccc3c2o1 [Example 47, 7-Methyl-2-propyloxazolo[4,5-c]quinolin-4-amine]
Interferon (α) Induction in Human Cells ([1]; Dose Concentration 0.01 μg/mL): −
Interferon (α) Induction in Human Cells ([1]; Dose Concentration 0.05 μg/mL): +
Interferon (α) Induction in Human Cells ([1]; Dose Concentration 0.10 μg/mL): +
Interferon (α) Induction in Human Cells ([1]; Dose Concentration 0.50 μg/mL): +
Interferon (α) Induction in Human Cells ([1]; Dose Concentration 1.0 μg/mL): +
Interferon (α) Induction in Human Cells ([1]; Dose Concentration 5.0 μg/mL): +
melting point: 188 to 189 °C

CCCc1nc2c(N)nc3cc(F)ccc3c2o1 [Example 48, 7-Fluoro-2-propyloxazolo[4,5-c]quinolin-4-amine]
Interferon (α) Induction in Human Cells ([1]; Dose Concentration 0.01 μg/mL): −
Interferon (α) Induction in Human Cells ([1]; Dose Concentration 0.05 μg/mL): −
Interferon (α) Induction in Human Cells ([1]; Dose Concentration 0.10 μg/mL): −
Interferon (α) Induction in Human Cells ([1]; Dose Concentration 0.50 μg/mL): +
Interferon (α) Induction in Human Cells ([1]; Dose Concentration 1.0 μg/mL): +
Interferon (α) Induction in Human Cells ([1]; Dose Concentration 5.0 μg/mL): +
melting point: 184 to 187 °C

CCCc1nc2c(N)nc3cc(F)ccc3c2s1 [Example 49, 7-Fluoro-2-propylthiazolo[4,5-c]quinolin-4-amine]
Interferon (α) Induction in Human Cells ([1]; Dose Concentration 0.01 μg/mL): −
Interferon (α) Induction in Human Cells ([1]; Dose Concentration 0.05 μg/mL): −
Interferon (α) Induction in Human Cells ([1]; Dose Concentration 0.10 μg/mL): −
Interferon (α) Induction in Human Cells ([1]; Dose Concentration 0.50 μg/mL): +
Interferon (α) Induction in Human Cells ([1]; Dose Concentration 1.0 μg/mL): +
Interferon (α) Induction in Human Cells ([1]; Dose Concentration 5.0 μg/mL): +
melting point: 192.5 to 193.5 °C

CCCc1nc2c(N)nc3cc(C(F)(F)F)ccc3c2s1 [Example 50, 2-Propyl-7-(trifluoromethyl)thiazolo[4,5-c]quinolin-4-amine]
Interferon (α) Induction in Human Cells ([1]; Dose Concentration 0.10 μg/mL): −
Interferon (α) Induction in Human Cells ([1]; Dose Concentration 0.50 μg/mL): +
Interferon (α) Induction in Human Cells ([1]; Dose Concentration 1.0 μg/mL): +
Interferon (α) Induction in Human Cells ([1]; Dose Concentration 5.0 μg/mL): +
Interferon (α) Induction in Human Cells ([1]; Dose Concentration 10.0 μg/mL): +
Interferon (α) Induction in Human Cells ([1]; Dose Concentration 25.0 μg/mL): +
Interferon (α) Induction in Human Cells ([1]; Dose Concentration 50.0 μg/mL): +
melting point: 215 to 216 °C

Nc1nc2ccccc2c2sc(N3CCCC3)nc12 [Example 54, 2-(1-Pyrrolidino)thiazolo[4,5-c]quinolin-4-amine]
Interferon (α) Induction in Human Cells ([1]; Dose Concentration 0.01 μg/mL): −
Interferon (α) Induction in Human Cells ([1]; Dose Concentration 0.05 μg/mL): −
Interferon (α) Induction in Human Cells ([1]; Dose Concentration 0.10 μg/mL): −
Interferon (α) Induction in Human Cells ([1]; Dose Concentration 0.50 μg/mL): −
Interferon (α) Induction in Human Cells ([1]; Dose Concentration 1.0 μg/mL): −
Interferon (α) Induction in Human Cells ([1]; Dose Concentration 5.0 μg/mL): −
Interferon (α) Induction in Human Cells ([1]; Dose Concentration 10.0 μg/mL): −
Interferon (α) Induction in Human Cells ([1]; Dose Concentration 25.0 μg/mL): +
Interferon (α) Induction in Human Cells ([1]; Dose Concentration 50.0 μg/mL): +
melting point: 259 to 261 °C

CCCCc1nc2c(N)nc3cccnc3c2s1 [Example 58, 2-Butylthiazolo[4,5-c][1,5]naphthyridin-4-amine]
Tumor Necrosis Factor Induction ([2]; Dose Concentration 0.12 μM): −
Tumor Necrosis Factor Induction ([2]; Dose Concentration 0.37 μM): +
Tumor Necrosis Factor Induction ([2]; Dose Concentration 1.11 μM): +
Tumor Necrosis Factor Induction ([2]; Dose Concentration 3.33 μM): +
Tumor Necrosis Factor Induction ([2]; Dose Concentration 10 μM): +
Tumor Necrosis Factor Induction ([2]; Dose Concentration 30 μM): +
Interferon (α) Induction ([3]; Dose Concentration 0.12 μM): −
Interferon (α) Induction ([3]; Dose Concentration 0.37 μM): −
Interferon (α) Induction ([3]; Dose Concentration 1.11 μM): −
Interferon (α) Induction ([3]; Dose Concentration 3.33 μM): −
Interferon (α) Induction ([3]; Dose Concentration 10 μM): ±
Interferon (α) Induction ([3]; Dose Concentration 30 μM): ±
melting point: 136 to 138 °C
